In publication PMC6915728 (Nature Communications, 2019):
Where two headings read alike, the source gives them in different places.

What was measured:
[1] = test system: AMP-evolved E. coli lines; experiment: Cross-resistance / collateral sensitivity: relative MIC change of 38 laboratory-evolved AMP-resistant lines vs parental strain; assay type: cell-based, Escherichia coli; conditions: measured here
[2] = test system: bacterial species in which the gene showed activity; conditions: cited from earlier work
[3] = test system: E. coli BW25113 overexpression strains (ASKA plasmids); experiment: Minimum inhibitory concentration (MIC), serial broth dilution, single-gene overexpression strains vs empty-vector control; assay type: cell-based, Escherichia coli; conditions: for Relative MIC: broth dilution, MS medium, 100 µM IPTG, 30 °C, 20-24 h, OD600, 3 replicates
In short: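 E. coli overexpression strains grown in MS medium with chloramphenicol, induced with 100 µM IPTG for 1 h at 30 °C, then about half-million cells inoculated into 12-step AMP dilutions (typically 1.2-fold steps). OD600 read after 20–24 h at 30 °C with shaking; triplicate strains compared with empty-vector control.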

TSSPPAAVVVRRRRRRRRRRRRRRRRRRR [PROA, Protamine, source herring, purchased from Sigma-Aldrich; cluster C3]
Relative change in MIC (MIC of the AMP-adpated line / MIC of the ancestral strain) ([1]; AMP-adapted line BAC5_3): 1.1 | Relative change in MIC (MIC of the AMP-adpated line / MIC of the ancestral strain) ([1]; AMP-adapted line BAC5_5): 1.015 | Relative change in MIC (MIC of the AMP-adpated line / MIC of the ancestral strain) ([1]; AMP-adapted line BAC5_7): 1.44 | Relative change in MIC (MIC of the AMP-adpated line / MIC of the ancestral strain) ([1]; AMP-adapted line BAC5_10): 1.728 | Relative change in MIC (MIC of the AMP-adpated line / MIC of the ancestral strain) ([1]; AMP-adapted line CAP18_2): 1.2 | Relative change in MIC (MIC of the AMP-adpated line / MIC of the ancestral strain) ([1]; AMP-adapted line CAP18_5): 0.7622 | Relative change in MIC (MIC of the AMP-adpated line / MIC of the ancestral strain) ([1]; AMP-adapted line CAP18_6): 0.7622 | Relative change in MIC (MIC of the AMP-adpated line / MIC of the ancestral strain) ([1]; AMP-adapted line CAP18_8): 1.22 | Relative change in MIC (MIC of the AMP-adpated line / MIC of the ancestral strain) ([1]; AMP-adapted line CAP18_10): 1.44 | Relative change in MIC (MIC of the AMP-adpated line / MIC of the ancestral strain) ([1]; AMP-adapted line HBD3_3): 1.464 | Relative change in MIC (MIC of the AMP-adpated line / MIC of the ancestral strain) ([1]; AMP-adapted line HBD3_6): 0.7639 | Relative change in MIC (MIC of the AMP-adpated line / MIC of the ancestral strain) ([1]; AMP-adapted line HBD3_8): 1.22 | Relative change in MIC (MIC of the AMP-adpated line / MIC of the ancestral strain) ([1]; AMP-adapted line HBD3_10): 1.584 | Relative change in MIC (MIC of the AMP-adpated line / MIC of the ancestral strain) ([1]; AMP-adapted line LL37_1): 0.7044 | Relative change in MIC (MIC of the AMP-adpated line / MIC of the ancestral strain) ([1]; AMP-adapted line LL37_3): 0.7622 | Relative change in MIC (MIC of the AMP-adpated line / MIC of the ancestral strain) ([1]; AMP-adapted line LL37_6): 0.48 | Relative change in MIC (MIC of the AMP-adpated line / MIC of the ancestral strain) ([1]; AMP-adapted line LL37_7): 1 | Relative change in MIC (MIC of the AMP-adpated line / MIC of the ancestral strain) ([1]; AMP-adapted line LL37_10): 0.48 | Relative change in MIC (MIC of the AMP-adpated line / MIC of the ancestral strain) ([1]; AMP-adapted line PEX_1): 1.2 | Relative change in MIC (MIC of the AMP-adpated line / MIC of the ancestral strain) ([1]; AMP-adapted line PEX_4): 1.728 | Relative change in MIC (MIC of the AMP-adpated line / MIC of the ancestral strain) ([1]; AMP-adapted line PEX_5): 0.915 | Relative change in MIC (MIC of the AMP-adpated line / MIC of the ancestral strain) ([1]; AMP-adapted line PEX_6): 2.0736 | Relative change in MIC (MIC of the AMP-adpated line / MIC of the ancestral strain) ([1]; AMP-adapted line PEX_7): 0.8472 | Relative change in MIC (MIC of the AMP-adpated line / MIC of the ancestral strain) ([1]; AMP-adapted line PR39_1): 2.99 | Relative change in MIC (MIC of the AMP-adpated line / MIC of the ancestral strain) ([1]; AMP-adapted line PR39_2): 1.2 | Relative change in MIC (MIC of the AMP-adpated line / MIC of the ancestral strain) ([1]; AMP-adapted line PR39_5): 1.2 | Relative change in MIC (MIC of the AMP-adpated line / MIC of the ancestral strain) ([1]; AMP-adapted line PR39_7): 1.73 | Relative change in MIC (MIC of the AMP-adpated line / MIC of the ancestral strain) ([1]; AMP-adapted line PR39_10): 1.44 | Relative change in MIC (MIC of the AMP-adpated line / MIC of the ancestral strain) ([1]; AMP-adapted line PXB_2): 1.7568 | Relative change in MIC (MIC of the AMP-adpated line / MIC of the ancestral strain) ([1]; AMP-adapted line PXB_5): 0.8333 | Relative change in MIC (MIC of the AMP-adpated line / MIC of the ancestral strain) ([1]; AMP-adapted line PXB_6): 1 | Relative change in MIC (MIC of the AMP-adpated line / MIC of the ancestral strain) ([1]; AMP-adapted line PXB_8): 1 | Relative change in MIC (MIC of the AMP-adpated line / MIC of the ancestral strain) ([1]; AMP-adapted line PXB_10): 1.44 | Gene that modulates bacterial susceptibility to the AMP ([2]; Burkholderia cenocepacia, ref http://www.microbiologyresearch.org/docserver/fulltext/micro/155/9/2818.pdf?expires=1468919235&id=id&accname=guest&checksum=2CEA64BA8195145BE72C98BB20076627): zmpA | Gene that modulates bacterial susceptibility to the AMP ([2]; Burkholderia cenocepacia, ref http://www.microbiologyresearch.org/docserver/fulltext/micro/155/9/2818.pdf?expires=1468919235&id=id&accname=guest&checksum=2CEA64BA8195145BE72C98BB20076628): zmpB | Gene that modulates bacterial susceptibility to the AMP ([2]; Enterobacteriaceae, ref https://www.ncbi.nlm.nih.gov/pmc/articles/PMC3264287/, https://onlinelibrary.wiley.com/doi/full/10.1111/j.1348-0421.2010.00238.x, https://jb.asm.org/content/180/15/4002.full): ompT | Gene that modulates bacterial susceptibility to the AMP ([2]; Klebsiella pneumoniae, ref http://iai.asm.org/content/72/12/7107.full.pdf+html): cps | Gene that modulates bacterial susceptibility to the AMP ([2]; Proteus mirabilis, ref http://aac.asm.org/content/45/7/2030.long): sapD | Gene that modulates bacterial susceptibility to the AMP ([2]; Pseudomonas aeruginosa, Salmonella typhimurium, Escherichia coli, ref http://www.sciencemag.org/content/286/5444/1561.full.pdf, http://onlinelibrary.wiley.com/doi/10.1111/j.1365-2958.1995.tb02299.x/abstract, http://www.ncbi.nlm.nih.gov/pmc/articles/PMC50673/pdf/pnas01098-0300.pdf, https://jb.asm.org/content/jb/182/14/4077.full.pdf): phoP (PhoPQ) | Gene that modulates bacterial susceptibility to the AMP ([2]; Salmonella Typhimurium LT2, ref https://doi.org/10.1093/jac/dkq059): hemC (hem operon) | Gene that modulates bacterial susceptibility to the AMP ([2]; Salmonella enterica serovar Typhimurium, ref http://www.microbiologyresearch.org/docserver/fulltext/micro/154/2/666.pdf?expires=1487718158&id=id&accname=guest&checksum=D8B884D02A8B2A8619216A48E0826377): yejA | Gene that modulates bacterial susceptibility to the AMP ([2]; Salmonella enterica, Escherichia coli, ref http://www.ncbi.nlm.nih.gov/pmc/articles/PMC395316/pdf/emboj00065-0046.pdf http://www.ncbi.nlm.nih.gov/pmc/articles/PMC538956/pdf/1013-04.pd): sapA | Gene that modulates bacterial susceptibility to the AMP ([2]; Salmonella typhimurium, Escherichia coli, ref https://www.ncbi.nlm.nih.gov/pmc/articles/PMC3037666/, https://www.ncbi.nlm.nih.gov/pmc/articles/PMC3837802/pdf/zam7770.pdf): cpxA (CpxA/CpxR) | Gene that modulates bacterial susceptibility to the AMP ([2]; Salmonella typhimurium, Escherichia coli, ref https://www.ncbi.nlm.nih.gov/pmc/articles/PMC3037666/, https://www.ncbi.nlm.nih.gov/pmc/articles/PMC4808223/): amiA, amiC | Gene that modulates bacterial susceptibility to the AMP ([2]; Salmonella typhimurium, ref https://www.ncbi.nlm.nih.gov/pmc/articles/PMC3037666/): tatA | Gene that modulates bacterial susceptibility to the AMP ([2]; Staphylococcus aureus, SalmonellaTyphimurium, ref http://ac.els-cdn.com/S0022202X15369608/1-s2.0-S0022202X15369608-main.pdf?_tid=6fa51c80-693e-11e6-b18c-00000aacb362&acdnat=1471962936_8118358d97a056d7d78b5e8b4ca8d03b, https://www.sciencedirect.com/science/article/pii/S0928824401002917): hemB | Average relative change in MIC ([3]; mlaD overexpression strain relative to control (wild-type+empty vector), 3 replicates each, from optical density values of serial dilution plates, AMP in µg ml-1): 0.70 | Relative MIC ([3]; overexpression strain cvpA, MIC of overexpression strain / MIC of empty-plasmid control): 0.78 | Relative MIC ([3]; overexpression strain gadW, MIC of overexpression strain / MIC of empty-plasmid control): 0.78 | Relative MIC ([3]; overexpression strain lptB, MIC of overexpression strain / MIC of empty-plasmid control): 0.51 | Relative MIC ([3]; overexpression strain mlaD, MIC of the overexpression strain / MIC of the control strain (wild-type carrying the empty plasmid)): 0.72 | Relative MIC ([3]; overexpression strain mzrA, MIC of overexpression strain / MIC of empty-plasmid control): 0.36 | Relative MIC ([3]; overexpression strain nikB, MIC of overexpression strain / MIC of empty-plasmid control): <0.71 | Relative MIC ([3]; overexpression strain ompT, MIC of overexpression strain / MIC of empty-plasmid control): >2.5 | Relative MIC ([3]; overexpression strain ptsN, MIC of overexpression strain / MIC of empty-plasmid control): 1.47 | Relative MIC ([3]; overexpression strain uhpC, MIC of overexpression strain / MIC of empty-plasmid control): <0.61 | Relative MIC ([3]; overexpression strain yhbJ, MIC of overexpression strain / MIC of empty-plasmid control): 0.69 | Relative MIC ([3]; overexpression strain ytjB, MIC of overexpression strain / MIC of empty-plasmid control): 0.8
